A value given as a limit tells only on which side of the number the result lay.

With `CCN(C)C1=NS(=O)(=O)c2cccc(OC)c21`, the melting point (in general, the temperature, or range, at which the solid turns liquid) lay within 154 to 156 °C.
For `Cc1cc(C)c(NC(=O)N(O)C(C)C)cc1C` the value was 176 to 177 °C; for `NS(=O)(=O)c1ccc(/C(=C2\CCOC2=O)c2ccc(F)cc2)cc1`, 202 °C.
Next, `C[C@H]1CCCN(C(=O)[C@@H]2Cc3ccccc3N2c2ccc3nncn3n2)C1`: greater than 300 °C.
Next, `Cc1cc(OCCCCOCc2ccccc2)cc(C)c1N=Nc1ccc([N+](=O)[O-])cc1`: 68 to 69.5 °C.
Turning to `COc1cc(N)c(Cl)cc1C(=O)NCC1CCN(CCCCCNCc2cccs2)CC1`, the melting point was in the range of 67 to 69 °C.
`COC(=O)c1ccc(C)c(-n2c(C)cc(OCc3ccc(F)cc3CNC(=O)Nc3cc(C(C)(C)C)nn3-c3ccc(O)cc3)c(Cl)c2=O)c1` displayed a melting point of 188 to 190 °C.
For `Cc1c(-c2ccccc2)oc2c(S(=O)CCCCCl)cccc2c1=O` (centres undefined) the value was 124 to 125 °C.
Compound `CN1C(=O)CN(C(=O)CNC(=O)OCc2ccccc2)C(c2ccccc2)c2cc(Cl)ccc21` (centres undefined) yielded a melting point of 158 to 160 °C.
Next, `CN(C)N=Cc1cc2c(cn1)[nH]c1ccccc12`: 203 to 206 °C; `O=C(O)c1ccc([N+](=O)[O-])cn1`: 210 to 211 °C.
For `O=C(Oc1ccccc1OC(=O)c1cc(O)c(O)c(O)c1)c1cc(O)c(O)c(O)c1` the value was 210 °C.
In turn, `CCOC(=O)c1cc2c3n(ccc-2n1)CC(C=O)=N3` displayed a melting point of 82 to 84 °C.
For `CN1CCN(c2ccc(C(=O)N[C@H]3CC[C@H](CCN4CCC(c5cccc6c5CCO6)CC4)CC3)cc2)CC1` the value was 241 °C; for `Clc1nc(N2CCOCC2)c2ccccc2n1`, 103 to 105 °C.
Next, `Cc1ccc(C)c(Oc2noc(=O)n2S(=O)(=O)N(C)C)c1`: 101 to 103 °C; `COC(=O)CCc1ccc(Nc2ccccc2[N+](=O)[O-])cc1`: 68 to 70 °C.
For `CC(C)(C)c1cc(O)c(N)c([N+](=O)[O-])c1` the value was 180 to 181 °C; for `COc1ccc2c3c(c(=O)oc2c1)CN(Cc1cccc(Cl)c1)CC3`, 112 to 115 °C; for `CCc1cc(OCc2ccccc2)cc(=O)o1`, 62 to 63 °C.
`COC[C@@H](C)N1Cc2c(ccc(Cl)c2NC(=O)c2ccc(F)c(C(F)(F)F)c2)C1=O`: the melting point was 131 to 132 °C.
For `Cc1oc2ccccc2c(=O)c1NC(=O)C(=O)O` the value was 208 °C; for `CC(C)n1nc(-c2sc(NC(=O)CNCc3ccccc3)nc2-c2ccccc2)ccc1=O`, 144 to 145 °C.
Next, `N#Cc1ccc(N2C[C@@H]3[C@H](O)CCN3C2=O)c2ccccc12`: 226 to 228 °C.
For `COc1ccc2cc(-c3ccc(C#C[Si](C)(C)C)cc3)[nH]c(=O)c2c1` the value was 133 to 135 °C; for `CCOc1ccccc1OCC(O)CN` (single isomer, unassigned; (-)), 87 °C.
The compound `CCCC(=O)c1cnc2c(N)cccc2c1Nc1ccccc1C` returned a melting point of 108 to 110 °C.
In turn, `CC(C)C(=O)Nc1cccc(-c2ccnc3c(C(=O)c4ccco4)cnn23)c1` gave a melting point of 189 to 191 °C.
For `COc1ccc(C(=O)c2ccccc2F)c(O)c1Cl` the value was 132 to 133 °C; for `O=C1N(Cc2nsc(Cl)n2)c2ccccc2C12COc1cc3c(cc12)OCO3` (centres undefined), 114 to 116 °C; for `COc1cc(COc2nn(-c3ccccc3)cc2CC2=NCCO2)ccc1OCc1nc(-c2ccco2)oc1C`, 95 to 96 °C.
Regarding `CCc1noc(-c2cn(-c3cccnc3)cn2)n1`, the melting point was in the range of 152 to 153 °C.
On to `CCOc1ccc(-c2nc3n(c2-c2ccc(OCC)cc2)CCS3)cc1`, for which the melting point fell in the range of 214 to 215 °C.
The compound `COc1cc2c(c3c1OC(C)(C)C3)C(c1ccccc1)=NC(CO)C2` (centres undefined) displayed a melting point of 156 to 158 °C.
For `COc1cc(N2CCC(N3CCN(C)CC3)CC2)ccc1Nc1ncc2ccc(-c3ccc(Cl)nc3)n2n1` the value was 186 to 188 °C; for `COC(=O)C(N)Cc1ccc(Oc2ccc(O)cc2)cc1` (centres undefined), 123 to 124 °C; for `CCNC(=O)n1nc(Oc2c(Cl)cc(C(F)(F)F)cc2[N+](=O)[O-])cc1C`, 98 to 99 °C.
For `N#Cc1cnc2sc(-c3cccc(C=O)c3)cc2c1Nc1ccc2[nH]ccc2c1` the value was 221 to 223 °C; for `Cc1cc(C)c(Nc2nc(C)ccc2S(=O)(=O)c2ccc(OCc3ccccn3)cc2)c(C)c1`, 182 to 184 °C.
Next, `Cn1nc(N)nc1NCCCOc1cccc(CN2CCCC2)c1`: 95 to 95.5 °C; `OCc1ccc2cccc(Br)c2c1`: 110 to 111 °C.
`CCN(CC)C(=O)COc1cc2ccccc2c(-c2ccccc2)n1`: the melting point was found to be 105 °C.
For `COc1cc2[nH]nc(S(C)=O)c(=O)c2cc1OC` (centres undefined), the melting point is 303 °C.
Next, `FC(F)(F)c1ccc2c(Cl)ncc(Br)c2n1`: 59 to 60 °C; `O=C(NCc1ccc(Cl)cc1)c1cnc2cccc(O)c2c1O`: 235 to 238 °C; `O=C1CCC(N2C(=O)c3cccc(OCc4ccc5ccccc5n4)c3C2=O)C(=O)N1` (centres undefined): 254 to 256 °C.
For `COCC1COc2cc3ncnc(Nc4cccc(Cl)c4)c3cc2O1` (centres undefined) the value was 277 to 282 °C; for `N#CC1(c2ccc(F)cc2)CCC(N2CCN(c3cccnn3)CC2)CC1` (centres undefined), 189 °C.
For `Cc1c(Nc2c(C#N)cnc3sc(-c4cccc(CN(C)C)c4)cc23)ccc2[nH]ccc12` the value was 227 to 229 °C.
The compound `CC(C)=CCN1CCC(=C2c3ccccc3CCn3ccnc32)CC1` showed a melting point of 127 °C.
For `Cc1cc(C(=O)N2Cc3cccn3Cc3ccccc32)ccc1C1=CCCCC1` the value was 173 to 175 °C; for `Cc1cc2c3c(ccc2cc1C=O)OC(=O)C3(C)C`, 193 to 195 °C; for `O=C(OCCOCn1cnc2c(Cl)nc(Cl)nc21)c1ccccc1`, 121 to 125 °C.
As to `Cc1cn(-c2cccc(C(F)(F)F)c2)nc(-c2ccnn2-c2ccccc2)c1=O`, the melting point was 147 to 150 °C.
For `Cc1c(NC(=O)c2ccc(OCCC(C)C)cc2F)ccc2cc(CN3CCCC3)cnc12` the value was 131 °C; for `COc1cc(C=Cc2nc3c(c(=O)n(C)c(=O)n3C)n2C)cc(OC)c1OCc1ccccc1`, 190 to 195 °C; for `O=[N+]([O-])c1cc(S(=O)c2ccc(-c3ccccc3)cc2)ccc1Cl` (centres undefined), 98 to 99 °C.
Next, `FC(F)(F)Oc1cccc(-c2ccc3nnn(Cc4ccc5ncccc5c4)c3n2)c1`: 140 to 142 °C; `COc1ccc(OCCC2CCN(c3cc(Cl)nnc3Cl)CC2)cc1`: 119 to 120 °C.
Next, `CCOC(=O)c1ncn2c1CNC(=O)c1cc(OC)ccc1-2`: 240 °C; `CC(C)C(=O)N1CC(OCc2ccccc2)C(OCc2ccccc2)C(OCc2ccccc2)C1COCc1ccccc1` (centres undefined): 185 to 189 °C; `Cc1ccc([N+](=O)[O-])c(C#N)c1`: 90 to 91 °C.
Compound `CCc1ccc2cc(C)c(-n3cncn3)nc2c1` displayed a melting point of 72 to 73 °C.
Next, `Cc1ccc(NCc2ccc(C(=O)Nc3ccccc3NC(=O)OC(C)(C)C)cc2)cc1Nc1nccc(-c2cccnc2)n1`: 125 °C.
`O=C(Nc1nccs1)c1nc(-c2cccc3ccccc23)[nH]c1-c1ccccc1` gave a melting point greater than 250 °C.
For `O=C1NC(=O)C(Sc2ccc3cc(O)ccc3c2)S1` (centres undefined) the value was 182 to 183 °C; for `CCCC(CCC)NC(=O)c1ccc2oc(OCC)nc2c1`, 128 to 129 °C.
Next, `[N-]=[N+]=NCC1Cc2c(ccc3c2CCC(=O)N3)O1` (centres undefined): 157 to 158 °C.
In the case of `CN(C)c1ccc(C(=O)N2CCC(Nc3nc(Nc4cccc(C(F)(F)F)c4)nc(OCC(F)(F)F)n3)CC2)cc1`, the melting point was in the range of 123 to 125 °C.
For `COc1ccc(NC(=O)CCCCC(=O)N(C)OC)cc1` the value was 89 to 90 °C; for `C=CCCCCCCOc1ccc(C(CC(C(=O)OCC)C(=O)OCC)NC(C)=O)cc1` (centres undefined), 50 to 53 °C; for `O=C1COc2ccccc2CN1Cc1ccccc1`, 95 to 97 °C.
`C[C@H](Oc1c(I)c(C(=O)NC(CO)CO)c(I)c(C(=O)NC(CO)CO)c1I)C(N)=O` gave a melting point of 110 °C.
For `Cc1cc2c(c(C)c1C)C(c1ccc(C(C)C)cc1)CO2` (centres undefined) the value was 70 to 71 °C; for `CCCCCCCCN(O)C(=O)N(C)C`, 29 to 30 °C.
Next, `Sc1nc2ccccc2n1Cc1c(Cl)cccc1Cl`: 234 to 235 °C; `Brc1ccc(-c2nc3cc(Br)ccc3s2)cc1`: 162 to 163 °C; `Cc1nc(Cl)c2n1-c1ccccc1C(c1ccccc1F)N(C)C2` (centres undefined): 156 to 158 °C.
For `CNC(=O)Nc1scc(C(C)C)c1C#N` the value was 179 to 181 °C; for `CCCn1c(=O)c2[nH]c(C34CC5CC(CC(C5)C3)C4)nc2n(CCC)c1=O`, 169 to 171 °C; for `O=C1CCC(CN2C(=O)C3(COc4cc5c(cc43)CCO5)c3ccccc32)N1` (centres undefined), 133 to 136 °C.
In the case of `CC(C)c1nc2c(N)nc3ccccc3c2s1`, the melting point lay in the range of 163 to 165 °C.
As for `COc1nc(C)cnc1N(C(=O)OCC(C)C)S(=O)(=O)c1cccnc1-c1ccc(O)cc1`, the melting point is 144 to 146 °C.
For `O=C1CCCN1C(=O)Oc1cccc(Br)c1` the value was 95 to 96 °C.
For `CN(C)S(=O)(=O)c1cc(-n2c(=O)cc(C(F)(F)F)[nH]c2=O)ccc1Cl` the value was 281 to 283 °C; for `O=C(O)C(=O)c1ccc(OCCCCc2cccnc2)cc1`, 163 to 165 °C.
For `Brc1nsc2nc3ccccc3n12` the value was 189 to 190 °C; for `COc1cc(C=O)c(C)c(OC)c1`, 63.4 to 65.1 °C; for `C=C(C)Cc1c(C)c(NC=O)c(C)c(C)c1O`, 163 to 164 °C.

For the origin of these results see a melting point compilation (Tetko et al.; mined from patent text by program, amines drawn as free bases though some values may be those of a salt).
